Experiments:
[1] = test system: Zymoseptoria tritici strain Zt StA; experiment: In planta preventive efficacy on wheat cv. Alixan against Zymoseptoria tritici strain Zt StA (control strain, sensitive); format: in vivo; conditions: for Disease Severity Intensity: % of length of 2nd leaf blade, preventive 24 h; for AUDPC: control 781.6
In short: (§1)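 BBCH 12 wheat plants sprayed preventively, inoculated 24 h later with calibrated pycnospore suspension; 3 pots of 6 plants per condition, 20/17 °C, 16 h light. Necrosis length on second leaf scored at 15, 21 and 28 dpi; efficacy from trapezoidal AUDPC as % of untreated control.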

[2] = test system: Zymoseptoria tritici strain Zt 20; experiment: In planta preventive efficacy on wheat cv. Alixan against Zymoseptoria tritici strain Zt 20; format: in vivo; conditions: % of length of 2nd leaf blade, preventive 24 h
In short: as §1

[3] = test system: Zymoseptoria tritici strain Zt 99; experiment: In planta preventive efficacy on wheat cv. Alixan against Zymoseptoria tritici strain Zt 99; format: in vivo; conditions: for Disease Severity Intensity: % of length of 2nd leaf blade, preventive 24 h; for AUDPC: control 1352.9
In short: as §1

[4] = test system: Zymoseptoria tritici strain Zt 19-52; experiment: In planta preventive efficacy on wheat cv. Alixan against Zymoseptoria tritici strain Zt 19-52; format: in vivo; conditions: % of length of 2nd leaf blade, preventive 24 h
[5] = test system: Zymoseptoria tritici strain Zt 38-02; experiment: In planta preventive efficacy on wheat cv. Alixan against Zymoseptoria tritici strain Zt 38-02; format: in vivo; conditions: for Disease Severity Intensity: % of length of 2nd leaf blade, preventive 24 h; for AUDPC: control 1261.4
In short: as §1

Z. tritici strains = experiment: In planta susceptibility of all Z. tritici strains pathogenic on wheat cv. ALIXAN (conclusions); format: in vivo, Zymoseptoria tritici
Description: Winter wheat plants cv. Alixan (Limagrain) at the BBCH 12 growth stage were treated preventively with sterile distilled water (control), ADF-16, penthiopyrad, metconazole or tebuconazole at the rates described in Table 2 with a hand sprayer at 2 bars.
After treatment, wheat plants were left to dry at room temperature for 1 hour and then placed in a climatic chamber: temperature of 24 °C day/18 °C night-photoperiod of 16 h light/8 h dark and a relative humidity of 65%.
Untreated or treated whole wheat plants were inoculated 24-hours post-treatment with a calibrated pycnospore suspension of Z. tritici strains Zt StA, Zt 61, Zt 99, Zt 20, Zt 19-52, and Zt 38-02. Three replicates (pots) of 6 wheat plants each were used for each condition tested. […]
Disease assessments were carried out at 15 days post inoculation (dpi), 21 dpi and 28 dpi by measuring the length of the necrosis on the second leaf blade. The intensity of infection was then determined as a percentage of the total length of 2nd leaf blade.
The fungicide efficacies were determined from the Area Under the Disease Progress Curve (AUDPC) values and expressed as a percentage of the untreated control.
The AUDPC is a quantitative measure of disease intensity over time. […] The AUDPC is determined with the following formula by adding all of the trapezoids: […]

[6] = test system: Zymoseptoria tritici strain Zt 61; experiment: In planta preventive efficacy on wheat cv. Alixan against Zymoseptoria tritici strain Zt 61; format: in vivo; conditions: for Disease Severity Intensity: % of length of 2nd leaf blade, preventive 24 h; for AUDPC: control 1194.9
In short: as §1

[7] = 15 dpi, rate N (g a.i./ha): ADF-16 100, penthiopyrad 200, metconazole 90, tebuconazole 250, control also no disease
[8] = 15 dpi, rate N/2.5 (g a.i./ha): ADF-16 40, penthiopyrad 80, metconazole 36, tebuconazole 100, control also no disease
[9] = rate N (g a.i./ha): ADF-16 100, penthiopyrad 200, metconazole 90, tebuconazole 250
[10] = rate N/2.5 (g a.i./ha): ADF-16 40, penthiopyrad 80, metconazole 36, tebuconazole 100

## Cc1ccc(S(=O)(=O)n2cc(F)c(=N)n(C)c2=O)cc1 [ADF-16, 5-fluoro-4-imino-3-methyl-1-tosyl-3,4-dihydropyrimidin-2 (1H)-one]
[1]; [7]
  Disease Severity Intensity: No disease
[1]; [8]
  Disease Severity Intensity: No disease
[1]; 21 dpi, rate N (g a.i./ha): ADF-16 100, penthiopyrad 200, metconazole 90, tebuconazole 250, control 36.5
  Disease Severity Intensity: 0.0 +/− 0.0b %
[1]; 21 dpi, rate N/2.5 (g a.i./ha): ADF-16 40, penthiopyrad 80, metconazole 36, tebuconazole 100, control 36.5
  Disease Severity Intensity: 0.0 +/− 0.0b %
[1]; 28 dpi, rate N (g a.i./ha): ADF-16 100, penthiopyrad 200, metconazole 90, tebuconazole 250, control 77.4
  Disease Severity Intensity: 0.0 +/− 0.0b %
[1]; 28 dpi, rate N/2.5 (g a.i./ha): ADF-16 40, penthiopyrad 80, metconazole 36, tebuconazole 100, control 77.4
  Disease Severity Intensity: 0.0 +/− 0.0b %
[1]; [9]
  Efficacy (from AUDPC, percentage of the untreated control): 100%
  AUDPC: 0.0 +/− 0.0b
[1]; [10]
  Efficacy (from AUDPC, percentage of the untreated control): 100%
  AUDPC: 0.0 +/− 0.0b
[2]; [7]
  Disease Severity Intensity: No disease
[2]; [8]
  Disease Severity Intensity: No disease
[2]; 21 dpi, rate N (g a.i./ha): ADF-16 100, penthiopyrad 200, metconazole 90, tebuconazole 250, control 77.2
  Disease Severity Intensity: 0.0 +/− 0.0e %
[2]; 21 dpi, rate N/2.5 (g a.i./ha): ADF-16 40, penthiopyrad 80, metconazole 36, tebuconazole 100, control 77.2
  Disease Severity Intensity: 0.0 +/− 0.0e %
[2]; 28 dpi, rate N (g a.i./ha): ADF-16 100, penthiopyrad 200, metconazole 90, tebuconazole 250, control 95.5
  Disease Severity Intensity: 0.0 +/− 0.0g %
[2]; 28 dpi, rate N/2.5 (g a.i./ha): ADF-16 40, penthiopyrad 80, metconazole 36, tebuconazole 100, control 95.5
  Disease Severity Intensity: 7.3 +/− 1.9f %
[3]; 15 dpi, rate N (g a.i./ha): ADF-16 100, penthiopyrad 200, metconazole 90, tebuconazole 250, control 47.9
  Disease Severity Intensity: 0.0 +/− 0.0d %
[3]; 15 dpi, rate N/2.5 (g a.i./ha): ADF-16 40, penthiopyrad 80, metconazole 36, tebuconazole 100, control 47.9
  Disease Severity Intensity: 0.0 +/− 0.0d %
[3]; 21 dpi, rate N (g a.i./ha): ADF-16 100, penthiopyrad 200, metconazole 90, tebuconazole 250, control 81.0
  Disease Severity Intensity: 0.1 +/− 0.1f %
[3]; 21 dpi, rate N/2.5 (g a.i./ha): ADF-16 40, penthiopyrad 80, metconazole 36, tebuconazole 100, control 81.0
  Disease Severity Intensity: 0.0 +/− 0.0f %
[3]; 28 dpi, rate N (g a.i./ha): ADF-16 100, penthiopyrad 200, metconazole 90, tebuconazole 250, control 92.2
  Disease Severity Intensity: 0.1 +/− 0.1e %
[3]; 28 dpi, rate N/2.5 (g a.i./ha): ADF-16 40, penthiopyrad 80, metconazole 36, tebuconazole 100, control 92.2
  Disease Severity Intensity: 1.7 +/− 0.8e %
[3]; [9]
  Efficacy (from AUDPC, percentage of the untreated control): 99.9%
  AUDPC: 1.2 ± 0.3 g
[3]; [10]
  Efficacy (from AUDPC, percentage of the untreated control): 99.6%
  AUDPC: 5.9 ± 0.4 g
[4]; 15 dpi, rate N (g a.i./ha): ADF-16 100, penthiopyrad 200, metconazole 90, tebuconazole 250, control 22.0
  Disease Severity Intensity: 0.0 +/− 0.0b %
[4]; 15 dpi, rate N/2.5 (g a.i./ha): ADF-16 40, penthiopyrad 80, metconazole 36, tebuconazole 100, control 22.0
  Disease Severity Intensity: 0.0 +/− 0.0b %
[4]; 21 dpi, rate N (g a.i./ha): ADF-16 100, penthiopyrad 200, metconazole 90, tebuconazole 250, control 81.7
  Disease Severity Intensity: 0.4 +/− 0.4c %
[4]; 21 dpi, rate N/2.5 (g a.i./ha): ADF-16 40, penthiopyrad 80, metconazole 36, tebuconazole 100, control 81.7
  Disease Severity Intensity: 0.3 +/− 0.2c %
[4]; 28 dpi, rate N (g a.i./ha): ADF-16 100, penthiopyrad 200, metconazole 90, tebuconazole 250, control 91.0
  Disease Severity Intensity: 2.0 +/− 1.4ef %
[4]; 28 dpi, rate N/2.5 (g a.i./ha): ADF-16 40, penthiopyrad 80, metconazole 36, tebuconazole 100, control 91.0
  Disease Severity Intensity: 4.4 +/− 1.7de %
[5]; 15 dpi, rate N (g a.i./ha): ADF-16 100, penthiopyrad 200, metconazole 90, tebuconazole 250, control 36.0
  Disease Severity Intensity: 0.0 +/− 0.0b %
[5]; 15 dpi, rate N/2.5 (g a.i./ha): ADF-16 40, penthiopyrad 80, metconazole 36, tebuconazole 100, control 36.0
  Disease Severity Intensity: 0.0 +/− 0.0b %
[5]; 21 dpi, rate N (g a.i./ha): ADF-16 100, penthiopyrad 200, metconazole 90, tebuconazole 250, control 84.3
  Disease Severity Intensity: 0.0 +/− 0.0f^ %
[5]; 21 dpi, rate N/2.5 (g a.i./ha): ADF-16 40, penthiopyrad 80, metconazole 36, tebuconazole 100, control 84.3
  Disease Severity Intensity: 0.0 +/− 0.0f^ %
[5]; 28 dpi, rate N (g a.i./ha): ADF-16 100, penthiopyrad 200, metconazole 90, tebuconazole 250, control 95.7
  Disease Severity Intensity: 0.4 +/− 0.4e %
[5]; 28 dpi, rate N/2.5 (g a.i./ha): ADF-16 40, penthiopyrad 80, metconazole 36, tebuconazole 100, control 95.7
  Disease Severity Intensity: 0.0 +/− 0.0e %
[5]; [9]
  Efficacy (from AUDPC, percentage of the untreated control): 99.9%
  AUDPC: 1.3 +/− 0.9e
[5]; [10]
  Efficacy (from AUDPC, percentage of the untreated control): 100%
  AUDPC: 0.0 +/− 0.0e
Z. tritici strains; 8 strains pathogenic on wheat cv. ALIXAN, 2 doses tested (40 and 100 g a.i./ha)
  control in planta of Z. tritici strains: perfectly controlled
Z. tritici strains; full dose of 100 g a.i./ha, across strains
  effectiveness: more than 99%
[6]; [7]
  Disease Severity Intensity: No disease
[6]; [8]
  Disease Severity Intensity: No disease
[6]; 21 dpi, rate N (g a.i./ha): ADF-16 100, penthiopyrad 200, metconazole 90, tebuconazole 250, control 63.3
  Disease Severity Intensity: 0.0 +/− 0.0d %
[6]; 21 dpi, rate N/2.5 (g a.i./ha): ADF-16 40, penthiopyrad 80, metconazole 36, tebuconazole 100, control 63.3
  Disease Severity Intensity: 3.2 +/− 1.1d %
[6]; 28 dpi, rate N (g a.i./ha): ADF-16 100, penthiopyrad 200, metconazole 90, tebuconazole 250, control 88.1
  Disease Severity Intensity: 1.5 +/− 0.3g %
[6]; 28 dpi, rate N/2.5 (g a.i./ha): ADF-16 40, penthiopyrad 80, metconazole 36, tebuconazole 100, control 88.1
  Disease Severity Intensity: 14.8 +/− 4.0e %
[6]; [9]
  Efficacy (from AUDPC, percentage of the untreated control): 99.6%
  AUDPC: 5.4 ± 1.2 days
[6]; [10]
  Efficacy (from AUDPC, percentage of the untreated control): 91.9%
  AUDPC: 97.2 ± 5.0 days

Source: patent publication US20260372303A1, “5-Fluoro-4-Imino-3-Methyl-1-Tosyl-3, 4-Dihydropyrimidin-2(1H) -One for Fungicide-Resistant Fungus” (priority 2022, published 2026)
